The first experiment has as its system equol producing microorganism population. Put plainly: Change in produced equol amount in the presence of carbohydrate (TLC image analysis). Type of experiment: cell-based, human. Conditions: 1% carbohydrate, 0.1 mM daidzein, three days; xylose = 100; average of image analysis for two coloring methods. How it is done: The activity for regulating equol concentration by psicose was calculated as follows. To a microorganism population stock having capability to produce equol (obtained by centrifuging and washing feces taken from equol producers, KR Patent Registration No. 2008-0072635), daidzein as a substrate for equol, and psicose were added, followed by culturing and measuring the equol concentration in a culture solution. The measured equol concentration was inserted together with equol concentration in a culture solution containing daidzein and xylose into Equation for calculating equol variation percentage below: Equol variation percentage (%)=(Equol concentration in the culture solution containing psicose and daidzein)/(Equol concentration in the culture solution containing xylose and daidzein)×100
GAM (Gifu anaerobic medium) medium (4 ml) was inoculated with equol producing microorganism population stock stored in liquid nitrogen (obtained by centrifuging and washing feces taken from equol producers, KR Patent Registration No. 2008-0072635), followed by cultivating for 3-4 hours to activate.
When OD (optical density) approached 1.5, 200 μl of medium was taken and transferred to an Eppendorf tube. To the Eppendorf tube, 0.1 mM of daidzein was added, followed by vortexing to initiate reaction.
In order to measure equol production over time, 50 μl of medium was sampled 1, 2 and 3 days after the inoculation.
To the medium, 1 ml of ethyl acetate was added to extract isoflavonoids. Extraction was performed as follows: after vortexing and centrifugation, 800 μl of ethyl acetate was taken from the medium, followed by removal of the solvent through vacuum drying. Then, the resultant was dissolved in 10 μl of methanol. 2 μl was used to perform TLC.
Equol producing microorganism population was inoculated and the product was extracted in the same manner as in Example 1 except that, before the substrate was inoculated with the activated microorganism population, the final concentration of carbohydrate was adjusted to 1% by adding 2 mg each of xylose, tagatose, psicose, sucrose, fructo-oligosaccharide, and glucose. Further, only daidzein was used as the substrate. Unlike the case where pure daidzein was used, the reaction rate of producing equol was changed when carbohydrates were added. Namely, the production of equol occurred more slowly for a long period of time.
In order to compare variation in the produced equol amount in the product, quantitative analysis of TLC results was performed using an image analyzer.
Assuming the produced equol amount in the culture solution containing xylose and daidzein to be 100, the produced equol amount after addition of each carbohydrate for three days was compared. The comparison results are as follows.
On to `O=C(CO)[C@H](O)[C@H](O)[C@H](O)CO` [Psicose, D-psicose], for which the “Variation (produced equol amount relative to culture solution containing xylose and daidzein)” value was 139%.

In the case of `OC[C@H]1O[C@@](CO)(O[C@H]2O[C@H](CO)[C@@H](O)[C@H](O)[C@H]2O)[C@@H](O)[C@@H]1O` [Sucrose, sucrose], the “Variation (produced equol amount relative to culture solution containing xylose and daidzein)” value was 54%.

Take `O=C(CO)[C@@H](O)[C@@H](O)[C@H](O)CO` [Tagatose, tagatose]: the “Variation (produced equol amount relative to culture solution containing xylose and daidzein)” value was 54%.

Regarding `O=C[C@H](O)[C@@H](O)[C@H](O)CO` [Xylose, xylose], the “Variation (produced equol amount relative to culture solution containing xylose and daidzein)” value was 100%.

Staying with this experiment, now noted: reaction condition for three days.
Turning to `O=C(CO)[C@H](O)[C@H](O)[C@H](O)CO` [Psicose, D-psicose], the equol production result is “significantly promoted equol production”.

For a further experiment, the system named is intestinal bacteria capable of producing equol.
Assay: not given
Conditions: saccharide no add = 100.0; cited from earlier work.
As for `OC[C@H]1O[C@@H](O[C@@H]2[C@@H](CO)OC(O)(CO)[C@H]2O)[C@H](O)[C@@H](O)[C@H]1O` (mixture of isomers) [Lactulose], the “Activity to regulate equol concentration” value is reported as 8.1%.

Take `OC[C@@H](O)[C@@H](O)[C@@H](O)CO` [Adonitol, adonitol]: the “Activity to regulate equol concentration” value is on record as 260.0%.

`O=C[C@@H](O)[C@H](O)[C@H](O)CO` [Arabinose, arabinose]: the “Activity to regulate equol concentration” value is listed as 391.1%.

For the molecule `O=C[C@H](O)[C@@H](O)[C@H](O[C@@H]1O[C@H](CO)[C@@H](O)[C@H](O)[C@H]1O)[C@H](O)CO` [Cellobiose], the “Activity to regulate equol concentration” value is reported as 160.6%.

With `OC[C@@H](O)[C@@H](O)CO` [Erythritol, erythritol], the “Activity to regulate equol concentration” value was 214.2%.

Regarding `O=C(CO)[C@@H](O)[C@H](O)[C@H](O)CO` [Fructose], the “Activity to regulate equol concentration” value is 51.5%.

For the molecule `O=C[C@H](O)[C@@H](O)[C@@H](O)[C@H](O)CO` [Galactose, galactose], the “Activity to regulate equol concentration” value is 240.1%.

Consider `O[C@H]1[C@H](O)[C@@H](O)[C@H](O)[C@@H](O)[C@H]1O` [Inositol, inositol], for which the “Activity to regulate equol concentration” value was 416.2%.

Consider `OC[C@@H](O)[C@@H](O[C@@H]1O[C@H](CO)[C@H](O)[C@H](O)[C@H]1O)[C@H](O)[C@@H](O)CO` [Lactitol, lactitol], for which the “Activity to regulate equol concentration” value is given as 459.1%.

Regarding `OC[C@H]1O[C@@H](O[C@H]2[C@H](O)[C@@H](O)C(O)O[C@@H]2CO)[C@H](O)[C@@H](O)[C@H]1O` (some centres unmarked) [Lactose], the “Activity to regulate equol concentration” value is 0.0%.

With `OC[C@H]1O[C@H](O[C@H]2[C@H](O)[C@@H](O)[C@H](O)O[C@@H]2CO)[C@H](O)[C@@H](O)[C@@H]1O` [Maltose], the “Activity to regulate equol concentration” value is listed as 58.5%.

As to `OC[C@@H](O)[C@@H](O)[C@H](O)[C@H](O)CO` [Mannitol], the “Activity to regulate equol concentration” value is recorded as 182.2%.

For `OC[C@H]1O[C@@](CO)(O[C@H]2O[C@H](CO)[C@@H](O)[C@H](O)[C@H]2O)[C@@H](O[C@H]2O[C@H](CO)[C@@H](O)[C@H](O)[C@H]2O)[C@@H]1O` [Melezitose, melezitose], the “Activity to regulate equol concentration” value was 411.6%.

Turning to `OC[C@H]1O[C@H](OCC2O[C@@H](O)[C@H](O)[C@@H](O)[C@@H]2O)[C@H](O)[C@@H](O)[C@H]1O` (some centres unmarked) [Melibiose], the “Activity to regulate equol concentration” value was 24.8%.

On to `OC[C@H]1O[C@H](OC[C@H]2O[C@H](O[C@]3(CO)O[C@H](CO)[C@@H](O)[C@@H]3O)[C@H](O)[C@@H](O)[C@@H]2O)[C@H](O)[C@@H](O)[C@H]1O` [Raffinose], for which the “Activity to regulate equol concentration” value is 0.0%.

Take `C[C@H](O)[C@H](O)[C@@H](O)[C@@H](O)C=O` [Rhamnose]: the “Activity to regulate equol concentration” value is listed as 116.4%.

Turning to `O=C[C@H](O)[C@H](O)[C@H](O)CO` [Ribose, ribose], the “Activity to regulate equol concentration” value is recorded as 329.6%.

With `OC[C@@H](O)[C@@H](O)[C@H](O)[C@@H](O)CO` [Sorbiol], the “Activity to regulate equol concentration” value was 372.5%.

Turning to `O=C(CO)[C@H](O)[C@@H](O)[C@H](O)CO` [Sorbose, sorbose], the “Activity to regulate equol concentration” value is recorded as 467.7%.

For `OC[C@H]1O[C@@](CO)(O[C@H]2O[C@H](CO)[C@@H](O)[C@H](O)[C@H]2O)[C@@H](O)[C@@H]1O` [Sucrose, sucrose], the “Activity to regulate equol concentration” value was 0.0%.

In the case of `OC[C@H]1O[C@H](O[C@H]2O[C@H](CO)[C@@H](O)[C@H](O)[C@H]2O)[C@H](O)[C@@H](O)[C@@H]1O` [Trehalose, trehalose], the “Activity to regulate equol concentration” value is 403.5%.

Turning to `O=C[C@H](O)[C@@H](O)[C@H](O)CO` [Xylose, xylose], the “Activity to regulate equol concentration” value was 442.6%.

As to Glycogen, the “Activity to regulate equol concentration” value is listed as 184.8%.

Inulin: the “Activity to regulate equol concentration” value is recorded as 0.0%.

These data come from patent publication US9839647B2, “Equol concentration increasing agent containing psicose as active ingredient” (CJ CHEILJEDANG CORPORATION, priority 2011, dated 2017).
